{"source": "patent US20240197760A1", "about": "“ACTIVATORS OF INTEGRATED STRESS RESPONSE PATHWAY FOR PROTECTION AGAINST FERROPTOSIS” (Burke Neurological Institute, priority 2021, published 2024)", "system": "MCAO mice", "test": "Filament MCAO model of transient ischemic stroke, sensory and motor function", "assay_type": "in vivo, mouse", "conditions": "10 mg/Kg i.p. from 24 h after MCAO, every day for 4 weeks", "procedure": "To assess the effect of 2-DG on the Bdnf gene expression, mice were injected with either saline or 2-DG (10 mg/Kg) intraperitoneally for 6 h and then mice were euthanized properly, and hippocampi were dissected out from mice brain. In order to assess functional improvement with 2-DG treatment after ischemic stroke, mice were injected with 2-DG (10 mg/Kg) intraperitoneally 24 h after induction of the stroke and then every day for four weeks. For assessing functional improvement with 2-DG treatment after hemorrhagic stroke, mice were injected with 2-DG (10 mg/Kg) intraperitoneally 24 h after induction of the stroke and then every day for three weeks. The ischemic stroke was induced using filament MCAO method as described before (Alim et al., 2019). In brief, all surgeries were conducted in sterile conditions. Male mice were anesthetized with isoflurane (5% induction, and 2% maintenance). A 2 cm incision was opened in the middle of the anterior neck. The right common carotid was temporarily ligated with 6-0 silk (Ethicon Inc.). Right unilateral MCAO was accomplished by inserting a Silicon rubber-coated monofilament (Doccol Corporation) into the internal carotid artery via the external carotid artery stump. Adequacy of MCAO was confirmed by monitoring cortical blood flow at the onset of the occlusion with a laser Doppler flowmetry probe affixed to the skull (Periflux System 5010; Perimed, Sweden). Animals were excluded if mean intra-ischemic laser Doppler flowmetry was >30% pre-ischemic baseline. […] The integrated sensorimotor function in both stimulation of vibrissae (sensory neglect) and rearing (motor response) was assessed through the corner turn test as described previously (Karuppagounder et al., 2016). […] The direction (left or right) in which the mouse turned around was recorded for each trial. […] The time from which the tape was applied to when the mouse successfully removed it was recorded for each paw. […] The latency to reach the ground were recorded. […]", "key": {"[1]": {"conditions": "vs saline significant on days 21 and 28"}}, "note": "“Also recorded” adds a separate entry of the source."}
{"smiles": "OC[C@H]1OC(O)C[C@@H](O)[C@@H]1O", "note": "(stereo partly drawn) [2-DG, (4R,5S,6R)-6-(hydroxymethyl)oxane-2,4,5-triol]", "values": [{"measurement": "pole test after ischemic stroke", "setting": "vs saline significant on day 21", "value": "significant improvement; also recorded: significant difference"}, {"measurement": "corner test after ischemic stroke", "setting": "[1]", "value": "significant improvement; also recorded: significant difference"}, {"measurement": "tape removal test after ischemic stroke", "setting": "[1]", "value": "significant improvement; also recorded: significant difference"}]}
